Measurements reported in publication PMC5285354, “Cationic Net Charge and Counter Ion Type as Antimicrobial Activity Determinant Factors of Short Lipopeptides” (Frontiers in Microbiology, 2017).
In brackets after ≈: the same amount, converted by molar mass. Where a SMILES comes first, the peptide text is derived from it. The star is where a group is joined. Palmitoyl = CCCCCCCCCCCCCCCC(=O)*; Myristoyl = CCCCCCCCCCCCCC(=O)*

Experiments:
Format in all cases: cell-based
[1] = tested on: Proteus vulgaris (PCM 2668); details: 24 h
[2] = tested on: Candida tropicalis (PCM 2681); details: PCM 2681, 48 h
Method in brief: (§1)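 CLSI broth microdilution: bacteria in Mueller-Hinton broth at 10^5 cfu/mL inoculum, 18 h at 37°C; fungi in Sabouraud Dextrose broth at 10^3 cfu/mL, 48 h at 25°C. MIC (μg/mL) is the lowest lipopeptide concentration inhibiting visible growth; triplicate on three days.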

[3] = tested on: Pseudomonas aeruginosa (ATCC 9027); details: ATCC 9027, 18 h
Method in brief: as §1

[4] = tested on: Escherichia coli (ATCC 25922); details: for MBC Escherichia coli, lipopeptides without TFA counter ion / MIC Escherichia coli / MIC Escherichia coli, lipopeptides without TFA counter ion: ATCC 25922, 18 h; for MBC Escherichia coli: ATCC 25922, 24 h
Method in brief: as §1

[5] = tested on: Aspergillus brasiliensis (ATCC 16404); details: ATCC 16404, 48 h
Method in brief: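 Lowest lipopeptide concentration (μg/mL) with no observable growth gave the MIC, alongside MBC/MFC, by CLSI microbroth dilution. Fungi: Sabouraud dextrose broth, 10^3 cfu/mL start, 25°C for 48 h; bacteria: MH broth, 10^5 cfu/mL, 37°C for 18 h. Run in triplicate, three separate days.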

[6] = tested on: Enterococcus faecalis (ATCC 29212); details: for MBC Enterococcus fecalis, lipopeptides without TFA counter ion / MIC Enterococcus fecalis / MIC Enterococcus fecalis, lipopeptides without TFA counter ion: ATCC 29212, 18 h; for MBC Enterococcus fecalis: ATCC 29212, 24 h
Method in brief: (§2)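 Broth microdilution per CLSI: Mueller-Hinton broth, 10^5 cfu/mL inoculum, 18 h at 37°C for bacteria; Sabouraud dextrose broth, 10^3 cfu/mL, 48 h at 25°C for fungi. MIC (μg/mL) is the lowest lipopeptide concentration inhibiting visible growth; MBC/MFC also determined. Triplicate on three days.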

[7] = tested on: Bacillus subtilis (ATCC 6633); details: for MIC Bacillus subtillis: ATCC 6633, 18 h; for MBC Bacillus subtillis: ATCC 6633, 24 h
Method in brief: as §2

[8] = tested on: Proteus vulgaris (PCM 2668); details: 18 h
Method in brief: as §1

[9] = tested on: Staphylococcus aureus (ATCC 25923); details: for MBC Staphylococcus aureus, lipopeptides without TFA counter ion / MIC Staphylococcus aureus / MIC Staphylococcus aureus, lipopeptides without TFA counter ion: ATCC 25923, 18 h; for MBC Staphylococcus aureus: ATCC 25923, 24 h
Method in brief: as §1

[10] = tested on: Candida albicans (ATCC 10231); details: ATCC 10231, 48 h
Method in brief: as §1

[11] = tested on: Staphylococcus epidermidis (PCM 2118); details: for MIC Staphylococcus epidermidis: PCM 2118, 18 h; for MBC Staphylococcus epidermidis: PCM 2118, 24 h
Method in brief: as §2

[12] = tested on: Klebsiella pneumoniae (ATCC 700603); details: for MBC Klebsiella pneumoniae, lipopeptides without TFA counter ion / MIC Klebsiella pneumoniae / MIC Klebsiella pneumoniae, lipopeptides without TFA counter ion: ATCC 700603, 18 h; for MBC Klebsiella pneumoniae: ATCC 700603, 24 h
Method in brief: as §1

[13] = tested on: Pseudomonas aeruginosa (ATCC 9027); details: ATCC 9027, 24 h
[14] = tested on: Candida albicans (ATCC 10231)
human red blood cells = details: 1 h
Method in brief: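 Washed donor erythrocytes (4% v/v in PBS, EDTA-anticoagulated) incubated with graded lipopeptide concentrations for 1 h at 37 °C; hemoglobin release read at 550 nm in supernatants. Scaled between 0.1% Triton X-100 (100%) and PBS (0%); MHC is the lowest concentration giving 10% hemolysis.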

MIC Candida tropicalis [2] [mg/L]	MIC Pseudomonas aeruginosa [3] [mg/L]	MIC Escherichia coli [4] [mg/L]	MIC Aspergillus brasiliensis [5] [mg/L]	MIC Enterococcus fecalis [6] [mg/L]	MIC Bacillus subtillis [7] [mg/L]	MIC Proteus vulgaris [8] [mg/L]	MIC Staphylococcus aureus [9] [mg/L]	SMILES	MBC Proteus vulgaris [1] [mg/L]	MFC Candida tropicalis [2] [mg/L]	MBC Escherichia coli, lipopeptides without TFA counter ion [4] [mg/L]	MIC Escherichia coli, lipopeptides without TFA counter ion [4] [mg/L]	MBC Escherichia coli [4] [mg/L]	MFC Aspergillus brasiliensis [5] [mg/L]	MBC Enterococcus fecalis, lipopeptides without TFA counter ion [6] [mg/L]	MIC Enterococcus fecalis, lipopeptides without TFA counter ion [6] [mg/L]	MBC Enterococcus fecalis [6] [mg/L]	MBC Bacillus subtillis [7] [mg/L]	MBC Staphylococcus aureus, lipopeptides without TFA counter ion [9] [mg/L]	MIC Staphylococcus aureus, lipopeptides without TFA counter ion [9] [mg/L]	other results
512 (≈ 856 µM)	64 (≈ 107 µM)	128 (≈ 214 µM)	128 (≈ 214 µM)	64 (≈ 107 µM)	16 (≈ 26.8 µM)	>512	64 (≈ 107 µM)	CCCCCCCCCCCCCC(=O)N[C@@H](CCCCN)C(=O)NCC(=O)N[C@@H](CCCCN)C(=O)NCC(N)=O [C14-KGKG-NH2] (Myristoyl-KGKG-NH2)	>512	512 (≈ 856 µM)	128 (≈ 214 µM)	128 (≈ 214 µM)	128 (≈ 214 µM)	128 (≈ 214 µM)	64 (≈ 107 µM)	64 (≈ 107 µM)	64 (≈ 107 µM)	16 (≈ 26.8 µM)	64 (≈ 107 µM)	64 (≈ 107 µM)	MBC Staphylococcus aureus [9]: 128 mg/L (≈ 214 µM); MFC Candida albicans [10]: 128 mg/L (≈ 214 µM); MIC Candida albicans [10]: 128 mg/L (≈ 214 µM); MIC Candida albicans, lipopeptides without TFA counter ion [10]: 256 mg/L (≈ 428 µM); MIC Staphylococcus epidermidis [11]: 32 mg/L (≈ 53.5 µM); MBC Staphylococcus epidermidis [11]: 32 mg/L (≈ 53.5 µM); MBC Klebsiella pneumoniae, lipopeptides without TFA counter ion [12]: 128 mg/L (≈ 214 µM); MIC Klebsiella pneumoniae [12]: 128 mg/L (≈ 214 µM); MIC Klebsiella pneumoniae, lipopeptides without TFA counter ion [12]: 128 mg/L (≈ 214 µM); MBC Klebsiella pneumoniae [12]: 128 mg/L (≈ 214 µM); MBC Pseudomonas aeruginosa [13]: 128 mg/L (≈ 214 µM); MFC Candida albicans, lipopeptides without TFA counter ion [14]: 256 mg/L (≈ 428 µM); Hemolysis HC10 (MHC), concentration of lipopeptide inducing 10% of hemolysis (human red blood cells): 512 µg/mL
256 (≈ 409 µM)	8 (≈ 12.8 µM)	16 (≈ 25.6 µM)	128 (≈ 205 µM)	16 (≈ 25.6 µM)	4 (≈ 6.39 µM)	>512	16 (≈ 25.6 µM)	CCCCCCCCCCCCCCCC(=O)N[C@@H](CCCCN)C(=O)NCC(=O)N[C@@H](CCCCN)C(=O)NCC(N)=O [C16-KGKG-NH2] (Palmitoyl-KGKG-NH2)	>512	256 (≈ 409 µM)	8 (≈ 12.8 µM)	8 (≈ 12.8 µM)	16 (≈ 25.6 µM)	128 (≈ 205 µM)	16 (≈ 25.6 µM)	16 (≈ 25.6 µM)	16 (≈ 25.6 µM)	4 (≈ 6.39 µM)	16 (≈ 25.6 µM)	8 (≈ 12.8 µM)	MBC Staphylococcus aureus [9]: 32 mg/L (≈ 51.1 µM); MFC Candida albicans [10]: 128 mg/L (≈ 205 µM); MIC Candida albicans [10]: 128 mg/L (≈ 205 µM); MIC Candida albicans, lipopeptides without TFA counter ion [10]: 128 mg/L (≈ 205 µM); MIC Staphylococcus epidermidis [11]: 4 mg/L (≈ 6.39 µM); MBC Staphylococcus epidermidis [11]: 4 mg/L (≈ 6.39 µM); MBC Klebsiella pneumoniae, lipopeptides without TFA counter ion [12]: 32 mg/L (≈ 51.1 µM); MIC Klebsiella pneumoniae [12]: 16 mg/L (≈ 25.6 µM); MIC Klebsiella pneumoniae, lipopeptides without TFA counter ion [12]: 16 mg/L (≈ 25.6 µM); MBC Klebsiella pneumoniae [12]: 16 mg/L (≈ 25.6 µM); MBC Pseudomonas aeruginosa [13]: 8 mg/L (≈ 12.8 µM); MFC Candida albicans, lipopeptides without TFA counter ion [14]: 128 mg/L (≈ 205 µM); Hemolysis HC10 (MHC), concentration of lipopeptide inducing 10% of hemolysis (human red blood cells): 64 µg/mL
